Assay results reported in patent EP1078630A1, “Use of sigma receptor agonists for the treatment of depression” (WARNER-LAMBERT COMPANY, priority 1999, dated 2001).

How the values were obtained:
[1] = literature (Ukai et al. 1998, Matsuno et al. 1996, Tottori et al. 1997, Kinsora et al. 1998); cited from earlier work
Male Swiss OF1 mice = experiment: Forced swim test in non-operated Swiss mice (duration of immobility); format: in vivo
Method: (§1) Male Swiss OF1 mice (Breeding center of the Faculty of Pharmacy, Montpellier, France), aged 5-6 weeks and weighing 30 ± 2 g are used throughout the study. Animals are housed in plastic cages in groups. They have free access to laboratory chow and water, except during behavioral experiments, and they are kept in a regulated environment (23 ± 1°C, 40-60% humidity) under a 12-hr light/dark cycle (light on at 7:00 a.m.). Experiments are carried out between 9:00 a.m. and 6:00 p.m., in a soundproof and air-regulated experimental room, to which mice are habituated at least 30 min before each experiment.
(§2) PROG and finasteride are suspended in sesame oil; other drugs are solubilized in distilled water or saline solution. Drugs are injected subcutaneously (s.c.) or intraperitoneally (i.p.), in a volume of 100 µl per 20 g of body weight.
(§3) Each mouse is placed individually in a glass cylinder (diameter 12 cm, height 24 cm) filled with water at a height of 12 cm. Water temperature is maintained at 22-23°C. The animal is forced to swim for 15 min on the first day. Animals are then allowed to return to their home cage. On the second day, each mouse is placed again into the water and forced to swim for 6 min. The session is videotaped and the duration of immobility during the last 5 min is measured. The mouse is considered as immobile when it stops struggling and moves only to remain floating in the water, keeping its head above water. Drugs are administered 30 min before the session on the second day. Finasteride is administered twice, 14 and 2 hr before the session on day 2.
(§4) Results are expressed as means ± S.E.M. Data are analyzed using the Dunnett's multiple comparisons test after an analyzis of variance (ANOVA, F values). The criterion for statistical significance is P < 0.05.

AdX/CX Swiss mice = experiment: Forced swim test in adrenalectomized/castrated (AdX/CX) Swiss mice; format: in vivo; conditions: for effect in AdX/CX animals as compared to non-operated mice: comparison of AdX/CX with non-operated animals; for influence of removal of circulating steroids on the antidepressant effect: AdX/CX versus non-operated mice
Method: as §1, §2, §3
About one week after habituation to the animal facilities, animals are anaesthetized with sodium pentobarbital 2%, 100 µl/30 g body weight i.p. Both adrenal glands are removed, through incisions in the back of the animal, just below the breast ribs. The skin is sutured. Then, both testes are ligatured and cut, through an incision in the scrotum. Animals received an injection of gentamycine 10 mg/kg i.p. and recovered within few hours from surgery. After surgery, drinking tap water is replaced by saccharose 1%, NaCI 0.9% solution. Animals are used for behavioral experiments six days after surgery.
as §4

In the case of C=CCN1CCC2(C)c3cc(O)ccc3CC1C2C (single isomer, unassigned; (+)) [(+)-SKF-10,047], the “antidepressant effects in animal models” value [1] is given as “reduce the immobility time in the forced swim test or are active in the tail suspension test” and the immobility time (Male Swiss OF1 mice; 30 mg/kg, Fig. 1B) is given as “decreases the immobility time”.
In the case of CC(C)=CCN1CCC2(C)c3cc(O)ccc3CC1C2C (single isomer, unassigned; (+)) [(+)-pentazocine], the “antidepressant effects in animal models” value [1] is given as “reduce the immobility time in the forced swim test or are active in the tail suspension test”.
In the case of C[C@]12CC[C@H](OS(=O)(=O)O)CC1=CC[C@@H]1[C@@H]2CC[C@]2(C)C(=O)CC[C@@H]12 [DHEAS], the immobility time (AdX/CX Swiss mice; AdX/CX animals, 5-60 mg/kg dose-range, Fig. 7) is reported as “significant diminution of the immobility time at all the doses examined”, the “effect in AdX/CX animals as compared to non-operated mice” value (AdX/CX Swiss mice) is reported as “in a more efficient manner as compared to non-operated animals” and the immobility time (Male Swiss OF1 mice; 10 mg/kg dose (5-60 mg/kg range tested), Fig. 3A) is reported as “slightly but significantly shortens the immobility time”. The immobility time (Male Swiss OF1 mice; dosages lower or higher than 10 mg/kg within 5-60 mg/kg, Fig. 3A) was “devoid of effect”.
In the case of Cc1ccccc1NC(=N)Nc1ccccc1C [DTG], the “antidepressant effects in animal models” value [1] is given as “reduce the immobility time in the forced swim test or are active in the tail suspension test”.
With CC(C)(C)NC(=O)[C@H]1CC[C@H]2[C@@H]3CC[C@H]4NC(=O)C=C[C@]4(C)[C@H]3CC[C@]12C [Finasteride, finasteride] the immobility time (AdX/CX Swiss mice; finasteride pretreatment (25 mg/kg s.c., 14 and 2 hr before session) in vehicle-treated AdX/CX mice, Fig. 5) was “does not affect the immobility time” and the “effect on the diminution of immobility time induced by igmesine” value (AdX/CX Swiss mice; finasteride pretreatment (25 mg/kg s.c., 14 and 2 hr before), igmesine 60 mg/kg, AdX/CX mice, Fig. 5) was “significantly alters the diminution induced by igmesine”.
In the case of CCCN(CCC)CCc1ccc(OC)c(OCCc2ccccc2)c1 [NE-100], the “antagonism of the antidepressant effect of DHEAS” value (AdX/CX Swiss mice; NE-100 i.p. 15 min before DHEAS, AdX/CX mice, Fig. 8B) is reported as “fully antagonizes”, the “antagonism of the antidepressant effect of igmesine” value (AdX/CX Swiss mice; NE-100 i.p. 15 min before igmesine, AdX/CX mice, Fig. 8A) is reported as “fully antagonizes” and the immobility time (Male Swiss OF1 mice; 1-10 mg/kg i.p. dose-range, given alone, Fig. 1C) is reported as “does not affect the immobility time by itself”. For the same compound, the “antagonism of the reduction of immobility time induced by igmesine” value (Male Swiss OF1 mice; NE-100 10 mg/kg pre-administered i.p. 15 min before igmesine, Fig. 1D) was “completely antagonizes the reduction of immobility time induced by igmesine” and the “antagonism of the DHEAS-induced diminution of immobility time” value (Male Swiss OF1 mice; NE-100 i.p. 15 min before DHEAS, Fig. 4B) was “prevents the DHEAS-induced diminution of immobility time”.
For COc1cccc2c1CCC(=O)N2CCCN1CCN(c2cccc(Cl)c2)CC1 [OPC14523], the “antidepressant effects in animal models” value [1] is given as “reduce the immobility time in the forced swim test or are active in the tail suspension test”.
For CC(=O)[C@H]1CC[C@H]2[C@@H]3CC=C4C[C@@H](OS(=O)(=O)O)CC[C@]4(C)[C@H]3CC[C@]12C [PREGS], the immobility time (Male Swiss OF1 mice; 5-40 mg/kg dose range, Fig. 3B) was “fails to affect the immobility time”.
For CC(=O)[C@H]1CC[C@H]2[C@@H]3CCC4=CC(=O)CC[C@]4(C)[C@H]3CC[C@]12C [PROG, progesterone], the immobility time (Male Swiss OF1 mice; 5-60 mg/kg dose range, given alone, Fig. 3C) was “does not affect the immobility time by itself”, the “antagonism of the DHEAS effect on immobility time” value (Male Swiss OF1 mice; PROG 20-60 mg/kg pre-administered before DHEAS 10 mg/kg, Fig. 3D) was “significant antagonism of its effect” and the “antagonism of the igmesine-induced reduction of immobility” value (Male Swiss OF1 mice; PROG pre-administered i.p. 15 min before igmesine, Fig. 4A) was “fully blocks the igmesine-induced reduction of immobility”.
For COc1ccc(CCN2CCN(CCCc3ccccc3)CC2)cc1OC [SA4503], the “antidepressant effects in animal models” value [1] is listed as “reduce the immobility time in the forced swim test or are active in the tail suspension test”.
For CNCCCN1c2ccccc2CCc2ccccc21 [desipramine], the “influence of removal of circulating steroids on the antidepressant effect” value (AdX/CX Swiss mice) was “failed to be affected by the removal of circulating steroids” and the immobility time (Male Swiss OF1 mice; 30 and 60 mg/kg i.p., Fig. 2) was “shortened the immobility time”.
In the case of CNCCC(Oc1ccc(C(F)(F)F)cc1)c1ccccc1 (stereo not drawn) [fluoxetine], the “antidepressant effect in the forced swim test” value (AdX/CX Swiss mice; AdX/CX Swiss mice, i.p. 30 min before session on day 2, Fig. 6) is reported as “antidepressant effect”, the “influence of removal of circulating steroids on the antidepressant effect” value (AdX/CX Swiss mice) is reported as “failed to be affected by the removal of circulating steroids” and the immobility time (Male Swiss OF1 mice; 30 and 60 mg/kg i.p., Fig. 2) is reported as “shortened the immobility time”.
For CCC(C/C=C/c1ccccc1)(c1ccccc1)N(C)CC1CC1.Cl (stereo not drawn) [igmesine, (E)-(+)-N-(cyclopropylmethyl)-α-ethyl-N-methyl-α-(3-phenyl-2-propenyl)benzenemethanamine hydrochloride], the “antidepressant effects in animal models” value [1] is listed as “reduce the immobility time in the forced swim test or are active in the tail suspension test”, the immobility time (AdX/CX Swiss mice; AdX/CX animals, 20 and 60 mg/kg, dose-dependent, Fig. 5) is listed as “shortens significantly the immobility time” and the “effect in AdX/CX animals as compared to non-operated mice” value (AdX/CX Swiss mice) is listed as “enhanced”. For the same compound, the immobility time (Male Swiss OF1 mice; 60 mg/kg i.p., 30 min before session on day 2, Fig. 1A) was “significantly shortens the immobility time”.
